# Read-outs that look alike come from different tables or passages of the source.
# Molecular target: T1, mouse Tas2r117 (Mus musculus, UniProt Q7M715)
# T1 construct: expressed in transfected cells; host or cells: HEK293T-Gα16gust44
# T1 sequence (Q7M715 1-330): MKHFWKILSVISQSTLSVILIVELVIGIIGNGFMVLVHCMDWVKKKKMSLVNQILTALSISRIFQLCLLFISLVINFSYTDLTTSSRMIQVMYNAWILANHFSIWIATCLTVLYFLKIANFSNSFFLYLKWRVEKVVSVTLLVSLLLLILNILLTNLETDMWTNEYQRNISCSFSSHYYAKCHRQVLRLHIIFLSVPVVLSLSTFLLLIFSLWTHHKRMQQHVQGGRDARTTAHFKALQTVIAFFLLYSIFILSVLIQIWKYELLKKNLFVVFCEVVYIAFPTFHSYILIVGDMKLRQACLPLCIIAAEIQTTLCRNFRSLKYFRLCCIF
# Assay: Calcium imaging assay (FLIPR), HEK293T-Gα16gust44 cells transfected with mouse Tas2r117
# Format: cell-based
# Method: This set of bile acids was chosen because of their commercial availability in high purities, their diversity within the class of bile acids and their previous detection and quantitation in human blood. Stock solutions were prepared in DMSO.
# As basal growth medium for the HEK293T-Gα16gust44 cell line[17],[59] served Dulbecco’s modified eagle medium (DMEM) (Thermo Fisher Scientific, Darmstadt, Germany) supplemented with 10 % fetal bovine serum (Sigma-Aldrich, Steinheim, Germany), 2 mM L-glutamine (Sigma-Aldrich, Steinheim, Germany), 100 units/ml penicillin (Sigma Aldrich, Steinheim, Germany) and 100 µg/ml streptomycin (Sigma Aldrich, Steinheim, Germany). Growth conditions were 37 °C, 5 % CO2 and saturated air-humidity[60].
# HEK293T-Gα16gust44 cells were seeded on poly-D-lysine (10 µg/ml) coated 96-well plates to reach a confluence of 40-60 % the next day. For transient transfection 150 ng of plasmid DNA containing the receptor of interest and 0.3 µl lipofectamine 2000 (Thermo Fisher Scientific, Darmstadt, Germany) per well were used and transfection took place according to the manual of lipofectamine 2000. […] The empty vector DNA (mock) was transfected as negative control[14],[41].
# Cells were loaded using the calcium-sensitive fluorescent dye Fluo-4-AM (Abcam, Cambridge, Great Britain) in the presence of 2.5 mM probenecid (Sigma-Aldrich, Steinheim, Germany) the day after transfection[13],[41]. 1 h after loading, cells were washed with C1 buffer using a BioTek Cell Washer, incubated in the dark for half an hour and washed again. For automated agonist application and measurement of fluorescence changes, a FLIPR^TETRA device (Molecular Devices, San José, United States) was used. Viability of cells was tested by application of 100 nM Somatostatin 14 (Bachem, Bubendorf, Switzerland)[42].
# Measured data were negative control corrected by subtracting the signal of the mock-transfected cells and exported to Microsoft Excel using the FLIPR software ScreenWorks 4.2. In Microsoft Excel software, standardization of maximum fluorescence intensities to the basal fluorescence and normalization to the buffer-only control was done to calculate the relative fluorescence changes (ΔF/F).
# Initial screening experiments performed in duplicate wells were confirmed by at least one replication and representative traces were selected for display. All dose-response relationships were determined by three independent experiments (biological replicates) performed in duplicates (technical replicates). Threshold concentrations, defined as lowest substance concentrations leading to statistically significant elevated fluorescence changes in receptor-transfected cells compared with empty vector-transfected cells, were determined using SigmaPlot with Student’s t-test to evaluate statistical significance (p < 0.01).
smiles,measurement,setting,value
"C[C@H](CCC(=O)O)[C@H]1CC[C@H]2[C@@H]3[C@H](O)C[C@@H]4C[C@H](O)CC[C@]4(C)[C@H]3C[C@H](O)[C@]12C [Cholic Acid, cholic acid]",EC50,,20.6 ± 5.1 µM
same,RLU,,487.07 RLU
same,RLU,"Time (s) 0, sheet Tas2r117, time trace",0 RLU
same,RLU,"Time (s) 2, sheet Tas2r117, time trace",4.604 RLU
same,RLU,"Time (s) 4, sheet Tas2r117, time trace",10.2904 RLU
same,RLU,"Time (s) 6, sheet Tas2r117, time trace",-0.8806 RLU
same,RLU,"Time (s) 8, sheet Tas2r117, time trace",6.861 RLU
same,RLU,"Time (s) 12, sheet Tas2r117, time trace",-14.1517 RLU
same,RLU,"Time (s) 14, sheet Tas2r117, time trace",7.665 RLU
same,RLU,"Time (s) 16, sheet Tas2r117, time trace",-9.341 RLU
same,RLU,"Time (s) 18, sheet Tas2r117, time trace",-12.0783 RLU
same,RLU,"Time (s) 18.797, sheet Tas2r117, time trace",-24.6076 RLU
same,RLU,"Time (s) 20.797, sheet Tas2r117, time trace",-3.383 RLU
same,RLU,"Time (s) 22.797, sheet Tas2r117, time trace",39.9085 RLU
same,RLU,"Time (s) 24.797, sheet Tas2r117, time trace",65.6016 RLU
same,RLU,"Time (s) 26.797, sheet Tas2r117, time trace",75.6489 RLU
same,RLU,"Time (s) 28.797, sheet Tas2r117, time trace",128.888 RLU
same,RLU,"Time (s) 30.797, sheet Tas2r117, time trace",168.759 RLU
same,RLU,"Time (s) 32.797, sheet Tas2r117, time trace",221.976 RLU
same,RLU,"Time (s) 34.797, sheet Tas2r117, time trace",270.035 RLU
same,RLU,"Time (s) 36.797, sheet Tas2r117, time trace",288.662 RLU
same,RLU,"Time (s) 38.797, sheet Tas2r117, time trace",310.785 RLU
same,RLU,"Time (s) 40.797, sheet Tas2r117, time trace",342.959 RLU
same,RLU,"Time (s) 42.797, sheet Tas2r117, time trace",363.04 RLU
same,RLU,"Time (s) 44.797, sheet Tas2r117, time trace",380.411 RLU
same,RLU,"Time (s) 46.797, sheet Tas2r117, time trace",395.355 RLU
same,RLU,"Time (s) 48.797, sheet Tas2r117, time trace",398.151 RLU
same,RLU,"Time (s) 50.797, sheet Tas2r117, time trace",423.224 RLU
same,RLU,"Time (s) 52.797, sheet Tas2r117, time trace",441.862 RLU
same,RLU,"Time (s) 54.797, sheet Tas2r117, time trace",446.522 RLU
same,RLU,"Time (s) 56.797, sheet Tas2r117, time trace",453.199 RLU
same,RLU,"Time (s) 58.797, sheet Tas2r117, time trace",444.318 RLU
same,RLU,"Time (s) 60.797, sheet Tas2r117, time trace",456.236 RLU
same,RLU,"Time (s) 62.797, sheet Tas2r117, time trace",461.012 RLU
same,RLU,"Time (s) 64.797, sheet Tas2r117, time trace",474.623 RLU
same,RLU,"Time (s) 66.797, sheet Tas2r117, time trace",445.559 RLU
same,RLU,"Time (s) 70.797, sheet Tas2r117, time trace",480.113 RLU
same,RLU,"Time (s) 72.797, sheet Tas2r117, time trace",466.131 RLU
same,RLU,"Time (s) 74.797, sheet Tas2r117, time trace",473.506 RLU
same,RLU,"Time (s) 76.797, sheet Tas2r117, time trace",498.186 RLU
same,RLU,"Time (s) 78.797, sheet Tas2r117, time trace",506.034 RLU
same,RLU,"Time (s) 80.797, sheet Tas2r117, time trace",507.589 RLU
same,RLU,"Time (s) 82.797, sheet Tas2r117, time trace",514.994 RLU
same,RLU,"Time (s) 84.797, sheet Tas2r117, time trace",484.679 RLU
same,RLU,"Time (s) 86.797, sheet Tas2r117, time trace",500.585 RLU
same,RLU,"Time (s) 88.797, sheet Tas2r117, time trace",496.095 RLU
same,RLU,"Time (s) 90.797, sheet Tas2r117, time trace",517.962 RLU
same,RLU,"Time (s) 92.797, sheet Tas2r117, time trace",513.104 RLU
same,RLU,"Time (s) 94.797, sheet Tas2r117, time trace",501.803 RLU
same,RLU,"Time (s) 96.797, sheet Tas2r117, time trace",495.693 RLU
same,RLU,"Time (s) 98.797, sheet Tas2r117, time trace",496.063 RLU
same,RLU,"Time (s) 100.797, sheet Tas2r117, time trace",476.828 RLU
same,RLU,"Time (s) 102.797, sheet Tas2r117, time trace",478.659 RLU
same,RLU,"Time (s) 104.797, sheet Tas2r117, time trace",493.353 RLU
same,RLU,"Time (s) 106.797, sheet Tas2r117, time trace",481.214 RLU
same,RLU,"Time (s) 108.797, sheet Tas2r117, time trace",477.549 RLU
same,RLU,"Time (s) 110.797, sheet Tas2r117, time trace",489.03 RLU
same,RLU,"Time (s) 112.797, sheet Tas2r117, time trace",467.178 RLU
same,RLU,"Time (s) 114.797, sheet Tas2r117, time trace",460.468 RLU
same,RLU,"Time (s) 116.797, sheet Tas2r117, time trace",475.775 RLU
same,RLU,"Time (s) 118.797, sheet Tas2r117, time trace",475.734 RLU
same,RLU,"Time (s) 120.797, sheet Tas2r117, time trace",478.85 RLU
same,RLU,"Time (s) 122.797, sheet Tas2r117, time trace",455.77 RLU
same,RLU,"Time (s) 124.797, sheet Tas2r117, time trace",448.646 RLU
same,RLU,"Time (s) 126.797, sheet Tas2r117, time trace",473.935 RLU
same,RLU,"Time (s) 128.797, sheet Tas2r117, time trace",443.919 RLU
same,RLU,"Time (s) 130.797, sheet Tas2r117, time trace",439.491 RLU
same,RLU,"Time (s) 132.797, sheet Tas2r117, time trace",446.634 RLU
same,RLU,"Time (s) 134.797, sheet Tas2r117, time trace",438.919 RLU
same,RLU,"Time (s) 136.797, sheet Tas2r117, time trace",440.652 RLU
same,RLU,"Time (s) 137.562, sheet Tas2r117, time trace",432.872 RLU
same,RLU,"Time (s) 143.578, sheet Tas2r117, time trace",412.03 RLU
same,RLU,"Time (s) 149.578, sheet Tas2r117, time trace",376.064 RLU
same,RLU,"Time (s) 155.578, sheet Tas2r117, time trace",372.116 RLU
same,RLU,"Time (s) 161.578, sheet Tas2r117, time trace",346.14 RLU
same,RLU,"Time (s) 167.578, sheet Tas2r117, time trace",348.952 RLU
same,RLU,"Time (s) 173.578, sheet Tas2r117, time trace",334.535 RLU
same,RLU,"Time (s) 179.578, sheet Tas2r117, time trace",329.157 RLU
same,RLU,"Time (s) 191.578, sheet Tas2r117, time trace",289.619 RLU
same,RLU,"Time (s) 197.578, sheet Tas2r117, time trace",289.013 RLU
same,RLU,"Time (s) 209.578, sheet Tas2r117, time trace",239.803 RLU
same,RLU,"Time (s) 221.578, sheet Tas2r117, time trace",142.758 RLU
same,RLU,"Time (s) 233.578, sheet Tas2r117, time trace",144.622 RLU
same,RLU,"Time (s) 239.578, sheet Tas2r117, time trace",165.061 RLU
same,RLU,"Time (s) 245.578, sheet Tas2r117, time trace",139.32 RLU
same,RLU,"Time (s) 293.578, sheet Tas2r117, time trace",116.805 RLU
same,RLU,"Time (s) 299.578, sheet Tas2r117, time trace",113.227 RLU
same,RLU,"Time (s) 305.578, sheet Tas2r117, time trace",94.7752 RLU
same,RLU,"Time (s) 311.578, sheet Tas2r117, time trace",118.792 RLU
same,RLU,"Time (s) 317.578, sheet Tas2r117, time trace",98.6072 RLU
same,RLU,"Time (s) 323.578, sheet Tas2r117, time trace",115.27 RLU
same,RLU,"Time (s) 329.578, sheet Tas2r117, time trace",87.0157 RLU
same,RLU,"Time (s) 335.578, sheet Tas2r117, time trace",73.721 RLU
same,RLU,"Time (s) 341.578, sheet Tas2r117, time trace",98.5271 RLU
same,RLU,"Time (s) 347.578, sheet Tas2r117, time trace",75.5864 RLU
same,RLU,"Time (s) 353.578, sheet Tas2r117, time trace",82.9151 RLU
same,RLU,"Time (s) 359.578, sheet Tas2r117, time trace",69.2265 RLU
same,Activation threshold concentration Tas2r117,p < 0.01 vs empty vector,10 µM

# — paper PMC10247784, “Physiological activation of human and mouse bitter taste receptors by bile acids” (Communications Biology, 2023)
